Target: T1, human macrophage galactose-type lectin (hMGL) (Homo sapiens, UniProt Q8IUN9)
T1 sequence (Q8IUN9 1-316): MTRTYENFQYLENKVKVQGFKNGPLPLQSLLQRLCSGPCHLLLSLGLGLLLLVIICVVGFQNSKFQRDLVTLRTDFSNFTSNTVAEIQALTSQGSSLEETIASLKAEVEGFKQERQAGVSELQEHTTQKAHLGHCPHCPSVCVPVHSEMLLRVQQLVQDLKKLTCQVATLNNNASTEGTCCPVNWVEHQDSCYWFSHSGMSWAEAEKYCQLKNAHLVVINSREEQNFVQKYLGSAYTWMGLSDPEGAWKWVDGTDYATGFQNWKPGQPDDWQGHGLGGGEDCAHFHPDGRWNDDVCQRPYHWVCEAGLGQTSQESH
Test: ITC analysis of binding of GalNAc and MUC1

[1] = 10 mM HEPES sodium salt, 50 mM NaCl, 2 mM CaCl2, pH 7.4, 298 K, one-site model

KA [1]: 68000 M⁻¹ | ΔG [1]: -6.59 kcal/mol | −TΔS [1]: 4.97 kcal/mol | n (stoichiometry) (complete saturation of hMGL, functional valency = 1/n, pH 7.4, 298 K): 0.99
SMILES: CC(=O)N[C@H]1C(O)O[C@H](CO)[C@H](O)[C@@H]1O (mixture of isomers) [GalNAc, N-acetylgalactosamine]
